The values that follow come from patent US8273738B2, “Imidazole derivatives” (priority 2006, dated 2012).

pEC50, pKi: −log10 of the molar value. Read-outs that look alike come from different tables or passages of the source. Where only a bound is given, the exact number is not on record here.

One assay concerns the target T1, human CB2 receptor (Homo sapiens, UniProt P34972).
T1 construct: expressed in transfected cells
Kind of assay: GTPγS binding experiment via human CB2 receptor (membrane fraction of CHO-K1 cells). Format: biochemical. As to conditions: for Emax: read-out: Emax value (maximum effect of CP55940 as 100%). On the procedure: A test was carried out according to the method of Hillard et al. [The Journal of Pharmacology and Experimental Therapeutics, vol. 289, p. 1427 (1999)]. As for a membrane specimen, a membrane fraction was prepared from CHO-K1 cells in which a human CB2 receptor [Nature, vol. 365, pp. 61-65 (1993)] was stably expressed and used. The membrane specimen (final concentration: 40 μg of protein/mL) was incubated together with a test compound and [^35S]GTPγS (manufactured by PerkinElmer) (final concentration: 0.05 nmol/L) in an assay buffer (50 mmol/L Tris-HCl buffer (pH 7.4), 100 mmol/L NaCl, 1 mmol/L EDTA, 3 mmol/L MgCl2, and 0.1% bovine serum albumin) containing 20 μmol/L guanosine 5′-diphosphate (GDP) at 30° C. for 1 hour, and the resulting mixture was filtered using a glass filter GF/B (manufactured by Whatman). After the glass filter was washed with the assay buffer, the radioactivity on the glass filter was measured using a liquid scintillation counter (TRI-CARB 2700TR, manufactured by Packard). The binding amount in the presence of 10 μmol/L GTPγS was considered to be a non-specific binding amount, and a difference between the total binding amount and the non-specific binding amount was considered to be a specific binding amount. The ratio of increase in the specific binding amount in the presence of the test compound to the specific binding amount in the absence of the test compound was considered to be an agonistic activity of the test compound. The concentration of the test compound that produces 50% of the maximum effect (EC50 value) was calculated by performing a nonlinear regression analysis using the concentration-response data. The percentage of the maximum effect of the test compound (Emax value) was calculated by considering the maximum effect of CP55940 (manufactured by Tocris) measured at the same time as 100%.
A general note: GTPγS is a poorly hydrolysed GTP analogue; its binding reports G protein activation.

Assay [1] concerns rats with chronic constriction nerve injury. The experiment in a line: Analgesic effect in rats with chronic constriction nerve injury (von Frey filament). Format: in vivo, rat. As to conditions: oral, dose of 50 mg/kg or less, one hour after administration, von Frey filaments. The text has this:
Rats with chronic constriction nerve injury were produced by partially modifying the method of Mosconi and Kruger et al. (Pain, vol. 64, pp. 37-57 (1996))
Male Crl:CD(SD) rats were used for the experiments. Under pentobarbital anesthesia, the sciatic nerve of the left hind limb of the rat was exfoliated, and the exfoliated region was wrapped with a polyethylene tube (trade name: Intramedic, size: PE-60, manufactured by Becton Dickinson and Company) of 2 mm in length. On days 14 to 21 after the surgery, the rats were placed in an acrylic connected cage with a wire mesh floor (900 mm (length)×210 mm (depth)×140 mm (height)) consisting of 4 cages connected in a row and allowed to acclimate to the environment for at least 20 minutes, and then, the pain was evaluated.
The von Frey filament (trade name: touch test sensory evaluator, Model number: model 58011, manufactured by Muromachi Kikai) was used to evaluate pain, and the results were calculated as a pain threshold. That is, by using a von Frey filament of different stimulus intensity, stimulation was given to the plantar surface of the injured side of rats with chronic constriction nerve injury, and the stimulus intensity to cause paw withdrawal response was obtained. Then, the 50% pain threshold (Paw withdrawal threshold) (g) was calculated by the up down method of Dixon [Annual Review of Pharmacology and Toxicology, vol. 20, pp. 441-462 (1980)].
In the evaluation of the test compound, rats with 50% pain threshold of less than 4 g were used, and the test compound was dissolved in a 0.5% aqueous methyl cellulose solution and orally administered at a dose of 5 mL/kg. One hour after the administration, the pain threshold was measured using von Frey filaments.

The next assay addresses T2, CB2 receptor (Rattus norvegicus, UniProt Q9QZN9).
T2 construct: from tissue; host or cells: rat spleen membrane specimen
T2 sequence (Q9QZN9 1-360): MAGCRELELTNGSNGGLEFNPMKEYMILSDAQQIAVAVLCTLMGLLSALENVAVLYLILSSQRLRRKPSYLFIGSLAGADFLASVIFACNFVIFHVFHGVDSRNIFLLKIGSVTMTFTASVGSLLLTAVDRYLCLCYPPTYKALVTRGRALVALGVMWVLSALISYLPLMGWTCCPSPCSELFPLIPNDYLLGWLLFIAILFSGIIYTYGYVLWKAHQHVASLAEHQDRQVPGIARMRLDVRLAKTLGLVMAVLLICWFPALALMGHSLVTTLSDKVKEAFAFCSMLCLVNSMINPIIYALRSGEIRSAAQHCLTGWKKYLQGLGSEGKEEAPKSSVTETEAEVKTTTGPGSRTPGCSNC
Kind of assay: Cannabinoid CB2 receptor-binding activity ([3H]CP55940 binding experiment), rat spleen membrane specimen. On the procedure: A test was carried out according to the method of Hillard et al. [The Journal of Pharmacology and Experimental Therapeutics, vol. 289, p. 1427 (1999)]. A rat forebrain membrane specimen and a rat spleen membrane specimen were prepared and used in a binding experiment for a CB1 receptor and a binding experiment for a CB2 receptor, respectively. The membrane specimen (forebrain: final concentration of 0.5 mg of protein/mL, spleen: final concentration of 2 mg of protein/mL) was incubated together with a test compound and [^3H]CP55940 (manufactured by PerkinElmer) ((−)-cis-3-[2-hydroxy-[3,5-^3H]-4-(1,1-dimethylheptyl)phenyl]-trans-4-(3-hydroxypropyl)cyclohexanol)) (final concentration: 0.5 nmol/L) in an assay buffer (50 mmol/L Tris-HCl buffer (pH 7.4), 1 mmol/L EDTA and 3 mmol/L MgCl2) containing 0.1% bovine serum albumin at 25° C. for 1 hour, and the resulting mixture was filtered using a glass filter GF/C (manufactured by Whatman) treated with 1% polyethyleneimine. After the glass filter was washed with the assay buffer containing 0.2% bovine serum albumin, the radioactivity on the glass filter was measured using a liquid scintillation counter (TRI-CARB 2700TR, manufactured by Packard). The binding amount in the presence of 10 μmol/L […] (manufactured by Tocris) ((R)-(+)-[2,3-dihydro-5-methyl-3-(4-morpholinylmethyl)pyrrolo[1,2,3-de]-1,4-benzoxazin-6-yl]-1-naphthalenylmethanone) was considered to be a non-specific binding amount, and a difference between the total binding amount and the non-specific binding amount was considered to be a specific binding amount. The 50% inhibitory concentration (IC50 value) of the test compound against the specific binding was obtained, and the Ki value of the test substance was calculated from the 50% inhibitory concentration and the Kd value of the [^3H]CP55940 binding.

Setting [2] is: rat spleen membrane, [3H]CP55940 0.5 nmol/L, 25° C., 1 hour, read-out: Ki value against the CB2 receptor.

T1 sequence (P34972 whole entry): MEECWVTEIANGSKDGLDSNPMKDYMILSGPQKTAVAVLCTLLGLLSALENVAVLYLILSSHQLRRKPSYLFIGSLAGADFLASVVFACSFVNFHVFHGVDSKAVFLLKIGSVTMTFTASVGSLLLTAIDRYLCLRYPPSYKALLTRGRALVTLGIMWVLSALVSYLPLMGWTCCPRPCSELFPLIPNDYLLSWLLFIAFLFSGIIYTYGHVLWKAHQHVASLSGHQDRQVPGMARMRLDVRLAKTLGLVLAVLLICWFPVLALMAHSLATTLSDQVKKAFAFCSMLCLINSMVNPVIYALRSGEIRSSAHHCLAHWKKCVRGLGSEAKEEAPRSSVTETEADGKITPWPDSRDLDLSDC

As for `CCN(CC)C(=O)c1cc(-c2cn(CC3CCOCC3)c(C(C)(C)C)n2)ccc1Cl` [Compound 65, 2-Chloro-5-(2-tert-butyl-1-(tetrahydropyran-4-ylmethyl)-1H-imidazol-4-yl)-N,N-diethylbenzamide], at human CB2 receptor, the pEC50 was above 6.00 and the Emax was above 30%. The “50% pain threshold (paw withdrawal threshold)” value (“50% pain threshold” below) in assay [1] was “significantly increased the pain threshold”. The compound also gave a negative logarithm of the Ki (pKi) on CB2 receptor above 6.00.

Regarding `CCN(CC)C(=O)c1cc(-c2cn(CC3CCOCC3)c(C(C)(C)C)n2)ccc1F.Cl` [Compound 66, 5-(2-tert-Butyl-1-(tetrahydropyran-4-ylmethyl)-1H-imidazol-4-yl)-N,N-diethyl-2-fluorobenzamide hydrochloride], at human CB2 receptor, the negative-log EC50 (pEC50) is above 6.00 and the maximal response (Emax) was above 30%. Also, the “50% pain threshold” value in assay [1] is “significantly increased the pain threshold”. Also, at CB2 receptor, the negative logarithm of the Ki (pKi) is above 6.00.

As to `CC(C)(C)c1nc(-c2cccc([N+](=O)[O-])c2)cn1CC1CCOCC1` [Compound 70, 2-tert-Butyl-4-(3-nitrophenyl)-1-(tetrahydropyran-4-ylmethyl)-1H-imidazole], on human CB2 receptor, the pEC50 was above 6.00 and the Emax is above 30%. Moreover, the “50% pain threshold” value in assay [1] is reported as “significantly increased the pain threshold”. Moreover, the pKi on CB2 receptor was above 6.00.

`CCNC(=O)c1cccc(-c2cn(CC3CCOCC3)c(C(C)(C)C)n2)c1` [Compound 72, 3-(2-tert-Butyl-1-(tetrahydropyran-4-ylmethyl)-1H-imidazol-4-yl)-N-ethylbenzamide]: on human CB2 receptor, the pEC50 is above 6.00 and the Emax was above 30%. Moreover, the pKi at CB2 receptor is above 6.00.

Turning to `CCN(CC)C(=O)c1cccc(-c2cn(CC3CCOCC3)c(C(C)(C)C)n2)c1.Cl` [Compound 76, 3-(2-tert-Butyl-1-(tetrahydropyran-4-ylmethyl)-1H-imidazol-4-yl)-N,N-diethylbenzamide hydrochloride], on human CB2 receptor, the pEC50 was above 6.00 and the Emax was above 30%. In addition, the “50% pain threshold” value in assay [1] was “significantly increased the pain threshold”. Besides, the pKi at CB2 receptor is above 6.00.

As for `CCN(CC)c1cccc(-c2cn(CC3CCOCC3)c(C(C)(C)C)n2)c1` [Compound 77, {3-[2-tert-Butyl-1-(tetrahydropyran-4-ylmethyl)-1H-imidazol-4-yl]phenyl}-diethylamine], at human CB2 receptor, the pEC50 is above 6.00 and the Emax was above 30%. Also, the pKi at CB2 receptor was above 6.00.

Turning to `CC(C)(C)c1nc(-c2cccc(C(=O)N(CC(F)(F)F)CC(F)(F)F)c2)cn1CC1CCOCC1` [Compound 82, 3-(2-tert-Butyl-1-(tetrahydropyran-4-ylmethyl)-1H-imidazol-4-yl)-N,N-bis(2,2,2-trifluoroethyl)benzamide], at human CB2 receptor, the pEC50 is above 6.00 and the Emax is above 30%. Further, the pKi on CB2 receptor was above 6.00.

For `CCN(C)C(=O)c1cccc(-c2cn(CC3CCOCC3)c(C(C)(C)C)n2)c1.Cl` [Compound 83, 3-(2-tert-Butyl-1-(tetrahydropyran-4-ylmethyl)-1H-imidazol-4-yl)-N-ethyl-N-methylbenzamide hydrochloride], on human CB2 receptor, the pEC50 was above 6.00 and the Emax was above 30%. The “50% pain threshold” value in assay [1] is listed as “significantly increased the pain threshold”. This compound had a pKi at CB2 receptor above 6.00.

For `CCN(CC)C(=O)c1cncc(-c2cn(CC3CCOCC3)c(C(C)(C)C)n2)c1` [Compound 85, 5-(2-tert-Butyl-1-(tetrahydropyran-4-ylmethyl)-1H-imidazol-4-yl)-N,N-diethylnicotinamide], on human CB2 receptor, the pEC50 is above 6.00 and the Emax was above 30%. For the same compound, the “50% pain threshold” value in assay [1] is “significantly increased the pain threshold”. This compound gave a pKi at CB2 receptor above 6.00.

Consider `CCN(C)C(=O)c1cc(-c2cn(CC3CCOCC3)c(C(C)(C)C)n2)cs1` [Compound 102, 4-[2-tert-Butyl-1-(tetrahydropyran-4-ylmethyl)-1H-imidazol-4-yl]-N-ethyl-N-methylthiophene-2-carboxamide], for which, at human CB2 receptor, the negative logarithm of the EC50 (pEC50) is above 6.00 and the maximum response (Emax) was above 30%. Besides, in assay [1], the “50% pain threshold” value is listed as “significantly increased the pain threshold”. The same compound had a negative logarithm of the Ki (pKi) at CB2 receptor above 6.00.

As to `CN(C)C(=O)c1cc(-c2cn(CC3CCOCC3)c(C(C)(C)C)n2)cs1` [Compound 133, 4-[2-tert-Butyl-1-(tetrahydropyran-4-ylmethyl)-1H-imidazol-4-yl]thiophene-2-carboxylic acid dimethylamide], the “50% pain threshold” value in assay [1] is on record as “significantly increased the pain threshold”. Also, the pKi on CB2 receptor (setting [2]) is above 6.00.

Turning to `CCN(CC)C(=O)c1cncc(-c2cn(CC3CCOCC3)c(C(C)(C)C)n2)n1` [Compound 143, 6-[2-tert-Butyl-1-(tetrahydropyran-4-ylmethyl)-1H-imidazol-4-yl]-N,N-diethylpyrazine-2-carboxamide], on human CB2 receptor, the negative-log EC50 (pEC50) is above 6.00 and the Emax was above 30%. Also, the “50% pain threshold” value in assay [1] is given as “significantly increased the pain threshold”. At CB2 receptor (setting [2]), the pKi was above 6.00.

In the case of `CN(C)C(=O)c1cccc(-c2cn(CC3(F)CCOCC3)c(C(C)(C)C)n2)c1` [Compound 187, 3-[2-tert-Butyl-1-(4-fluorotetrahydropyran-4-ylmethyl)-1H-imidazol-4-yl]-N,N-dimethylbenzamide], the “50% pain threshold” value in assay [1] is “significantly increased the pain threshold”. Further, the pKi at CB2 receptor (setting [2]) was above 6.00.

Consider `CN(CC#N)C(=O)c1cncc(-c2cn(CC3CCOCC3)c(C(C)(C)C)n2)n1` [Compound 207, 6-[2-tert-Butyl-1-(tetrahydropyran-4-ylmethyl)-1H-imidazol-4-yl]-N-cyanomethyl-N-methylpyrazine-2-carboxamide], for which, in assay [1], the “50% pain threshold” value was “significantly increased the pain threshold”. Further, the pKi on CB2 receptor (setting [2]) is above 6.00.

What is called pEC50 is −log10 of the EC50, conventionally taken in molar units. Usually Emax stands for the size of the effect at its maximum, as opposed to the concentration needed. As a reminder, the pKi is −log10 of the Ki, conventionally taken in molar units.
